Key:
Format in all cases: in vivo
[1] = tested on: bermudagrass (Cynodon dactylon); experiment: Test B pre-/postemergence plant response
Procedure, shortened: (§1)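 Seeds were sown in loam soil/sand blend and treated preemergence with compound in non-phytotoxic solvent mixture containing surfactant; postemergence sprays, same formulation, went onto plants 2 to 18 cm (1- to 4-leaf stage) in peat-based planting medium. Greenhouse 13 to 15 days, then visual rating versus untreated controls, 0 (no effect) to 100 (complete control).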

[2] = tested on: cocklebur (Xanthium strumarium); experiment: Test B pre-/postemergence plant response
Procedure, shortened: as §1

[3] = tested on: goosegrass (Eleusine indica); experiment: Test B pre-/postemergence plant response
Procedure, shortened: as §1

[4] = tested on: green foxtail (Setaria viridis); experiment: Test B pre-/postemergence plant response
Procedure, shortened: as §1

[5] = tested on: lambsquarters (Chenopodium album); experiment: Test B pre-/postemergence plant response
Procedure, shortened: as §1

[6] = tested on: large crabgrass (Digitaria sanguinalis); experiment: Test B pre-/postemergence plant response
Procedure, shortened: as §1

[7] = tested on: morningglory (Ipomoea coccinea); experiment: Test B pre-/postemergence plant response
Procedure, shortened: as §1

[8] = tested on: wheat (Triticum aestivum); experiment: Test B pre-/postemergence plant response
Procedure, shortened: as §1

wild oat (Avena fatua) = experiment: Test B pre-/postemergence plant response
Procedure, shortened: as §1

[9] = tested on: yellow nutsedge (Cyperus esculentus); experiment: Test B pre-/postemergence plant response
Procedure, shortened: as §1

[10] = tested on: barnyardgrass (Echinochloa crus-galli); experiment: Test B flooded paddy test; conditions: for Plant response rating, Flood, Barnyardgrass: 250 g ai/ha, flooded paddy test, visual rating on 0 to 100 scale (0 no effect, 100 complete control) after 13 to 15 days; for Plant response rating, Barnyardgrass: Flood (flooded paddy test), 13 to 15 days
Procedure, shortened: (§2)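 Rice, umbrella sedge, ducksalad and barnyardgrass were grown to the 2-leaf stage, flooded to 3 cm, and compound was applied directly to the paddy water, with that depth kept throughout. After 13 to 15 days in the greenhouse, plants were visually rated against controls on a 0 (no effect) to 100 (complete control) scale.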

[11] = tested on: umbrella sedge (Cyperus difformis); experiment: Test B flooded paddy test; conditions: for Plant response rating, Flood, Sedge, Umbrella: 250 g ai/ha, flooded paddy test, visual rating on 0 to 100 scale (0 no effect, 100 complete control) after 13 to 15 days; for Plant response rating, Sedge, Umbrella: Flood (flooded paddy test), 13 to 15 days
Procedure, shortened: as §2

[12] = 250 g ai/ha, Preemergence, 0 to 100 scale
[13] = Postemergence, 31 g ai/ha, scale 0 to 100 (0 no effect, 100 complete control)
[14] = Postemergence, 62 g ai/ha, scale 0 (no effect) to 100 (complete control), 13 to 15 days
[15] = Postemergence, 125 g ai/ha, visual rating after 13 to 15 days, scale 0 (no effect) to 100 (complete control)
[16] = Postemergence, 250 g ai/ha, scale 0 to 100
[17] = Preemergence, 31 g ai/ha, scale 0 to 100 (0 no effect, 100 complete control)
[18] = Preemergence, 62 g ai/ha, scale 0 to 100 (0 no effect, 100 complete control)
[19] = Preemergence, 125 g ai/ha, 0 to 100 scale
[20] = 62 g ai/ha, scale 0 to 100, 0 is no effect, 100 is complete control
[21] = Postemergence, 31 g ai/ha, 0 to 100 scale (0 no effect, 100 complete control)
[22] = Postemergence, 125 g ai/ha, scale 0 to 100 (0 no effect, 100 complete control)
[23] = Postemergence, 250 g ai/ha, scale 0 to 100 (0 no effect, 100 complete control), 13 to 15 days
[24] = 62 g ai/ha, scale of 0 to 100 where 0 is no effect and 100 is complete control
[25] = 125 g ai/ha, scale 0 to 100, 0 is no effect, 100 is complete control
[26] = Flood, 31 g ai/ha, scale 0 to 100 (0 no effect, 100 complete control)

## Cc1ccc(F)cc1-n1c(-c2ccccc2)ncc(C(=O)C2=C(O)CCCC2=O)c1=O [Compound 44]
[1]; [12]
  Plant response rating, Bermudagrass: 100
[1]; [13]
  Plant response rating, Bermudagrass: 80
[1]; [14]
  Plant response rating, Bermudagrass: 95
[1]; [15]
  Plant response rating, Bermudagrass: 95
[1]; [16]
  Bermudagrass plant response rating: 98
[1]; [17]
  Plant response rating, Bermudagrass: 100
[1]; [18]
  Plant response rating, Bermudagrass: 100
[1]; [19]
  Bermudagrass plant response rating: 100
[2]; [12]
  Plant response rating, Cocklebur: 45
[2]; [13]
  Plant response rating, Cocklebur: 80
[2]; [14]
  Plant response rating, Cocklebur: 80
[2]; [15]
  Plant response rating, Cocklebur: 90
[2]; [16]
  Cocklebur plant response rating: 98
[3]; [12]
  Plant response rating, Goosegrass: 100
[3]; [14]
  Plant response rating, Goosegrass: 90
[3]; [15]
  Plant response rating, Goosegrass: 90
[3]; [16]
  Goosegrass plant response rating: 95
[3]; [17]
  Plant response rating, Goosegrass: 90
[3]; [19]
  Goosegrass plant response rating: 100
[4]; [12]
  Plant response rating, Foxtail, Green: 100
[4]; [13]
  Plant response rating, Foxtail, Green: 90
[4]; [14]
  Plant response rating, Foxtail, Green: 90
[4]; [15]
  Plant response rating, Foxtail, Green: 90
[4]; [16]
  Foxtail, Green plant response rating: 90
[4]; [17]
  Plant response rating, Foxtail, Green: 0
[4]; [18]
  Plant response rating, Foxtail, Green: 98
[4]; [19]
  Foxtail, Green plant response rating: 98
[5]; [12]
  Plant response rating, Lambsquarters: 100
[5]; [14]
  Plant response rating, Lambsquarters: 95
[5]; [15]
  Plant response rating, Lambsquarters: 95
[5]; [16]
  Lambsquarters plant response rating: 98
[5]; [17]
  Plant response rating, Lambsquarters: 100
[5]; [18]
  Plant response rating, Lambsquarters: 100
[5]; [19]
  Lambsquarters plant response rating: 100
[6]; [12]
  Plant response rating, Crabgrass, Large: 100
[6]; [13]
  Plant response rating, Crabgrass, Large: 85
[6]; [14]
  Plant response rating, Crabgrass, Large: 90
[6]; [15]
  Plant response rating, Crabgrass, Large: 95
[6]; [16]
  Crabgrass, Large plant response rating: 98
[6]; [17]
  Plant response rating, Crabgrass, Large: 65
[6]; [18]
  Plant response rating, Crabgrass, Large: 75
[6]; [19]
  Crabgrass, Large plant response rating: 100
[7]; [12]
  Plant response rating, Morningglory: 95
[7]; [14]
  Plant response rating, Morningglory: 70
[7]; [15]
  Plant response rating, Morningglory: 75
[7]; [17]
  Plant response rating, Morningglory: 0
[7]; [18]
  Plant response rating, Morningglory: 0
[7]; [19]
  Morningglory plant response rating: 50
[8]; [12]
  Plant response rating, Wheat: 0
[8]; [14]
  Plant response rating, Wheat: 10
[8]; [15]
  Plant response rating, Wheat: 30
[8]; [17]
  Plant response rating, Wheat: 0
[8]; [19]
  Wheat plant response rating: 0
Wild oat (Avena fatua); [12]
  Plant response rating, Oat, Wild: 30
Wild oat (Avena fatua); [14]
  Plant response rating, Oat, Wild: 80
Wild oat (Avena fatua); [15]
  Plant response rating, Oat, Wild: 80
Wild oat (Avena fatua); [17]
  Plant response rating, Oat, Wild: 0
Wild oat (Avena fatua); [19]
  Oat, Wild plant response rating: 5
[9]; [12]
  Plant response rating, Nutsedge, Yellow: 90
[9]; [14]
  Plant response rating, Nutsedge, Yellow: 50
[9]; [15]
  Plant response rating, Nutsedge, Yellow: 50
[9]; [17]
  Plant response rating, Nutsedge, Yellow: 45
[9]; [19]
  Nutsedge, Yellow plant response rating: 75
[10]
  Plant response rating, Flood, Barnyardgrass: 30
[10]; [20]
  Plant response rating, Barnyardgrass: 0
[11]
  Plant response rating, Flood, Sedge, Umbrella: 90
[11]; [20]
  Plant response rating, Sedge, Umbrella: 80

## Cc1ccc(Cl)cc1-n1c(-c2cccc(F)c2)ncc(C(=O)C2=C(O)CCCC2=O)c1=O [Compound 184]
[1]; 62 g ai/ha, postemergence, 0 is no effect, 100 is complete control, 13 to 15 days
  Bermudagrass plant response rating (0 to 100 scale): 100
[1]; [21]
  Plant response rating, Bermudagrass: 98
[1]; [22]
  Plant response rating, Bermudagrass: 100
[1]; [23]
  Plant response rating, Bermudagrass: 100
[2]; [21]
  Plant response rating, Cocklebur: 100
[2]; [22]
  Plant response rating, Cocklebur: 100
[2]; [23]
  Plant response rating, Cocklebur: 100
[3]; [21]
  Plant response rating, Goosegrass: 100
[3]; [22]
  Plant response rating, Goosegrass: 100
[3]; [23]
  Plant response rating, Goosegrass: 100
[4]; [21]
  Plant response rating, Foxtail, Green: 30
[4]; [22]
  Plant response rating, Foxtail, Green: 85
[4]; [23]
  Plant response rating, Foxtail, Green: 98
[5]; [21]
  Plant response rating, Lambsquarters: 80
[5]; [22]
  Plant response rating, Lambsquarters: 100
[5]; [23]
  Plant response rating, Lambsquarters: 100
[6]; [21]
  Plant response rating, Crabgrass, Large: 100
[6]; [22]
  Plant response rating, Crabgrass, Large: 100
[6]; [23]
  Plant response rating, Crabgrass, Large: 100
[7]; [21]
  Plant response rating, Morningglory: 40
[7]; [22]
  Plant response rating, Morningglory: 100
[7]; [23]
  Plant response rating, Morningglory: 100
[8]; [21]
  Plant response rating, Wheat: 30
[8]; [22]
  Plant response rating, Wheat: 55
[8]; [23]
  Plant response rating, Wheat: 60
Wild oat (Avena fatua); [21]
  Plant response rating, Oat, Wild: 40
Wild oat (Avena fatua); [22]
  Plant response rating, Oat, Wild: 80
Wild oat (Avena fatua); [23]
  Plant response rating, Oat, Wild: 98
[9]; [21]
  Plant response rating, Nutsedge, Yellow: 35
[9]; [22]
  Plant response rating, Nutsedge, Yellow: 45
[9]; [23]
  Plant response rating, Nutsedge, Yellow: 75
[10]
  Plant response rating, Flood, Barnyardgrass: 25
[10]; [24]
  Plant response rating, Barnyardgrass: 0
[10]; [25]
  Plant response rating, Barnyardgrass: 20
[10]; [26]
  Barnyardgrass plant response rating: 0
[11]
  Plant response rating, Flood, Sedge, Umbrella: 95
[11]; [24]
  Plant response rating, Sedge, Umbrella: 80
[11]; [25]
  Plant response rating, Sedge, Umbrella: 80
[11]; [26]
  Sedge, Umbrella plant response rating: 65

Reference: patent publication US8952024B2, “Herbicidal pyrimidone derivatives” (E I du Pont de Nemours and Company, priority 2009, dated 2015)
